Activity calls are given as the source filed them. How the calls were made is not given here.
The compounds below were run against Mucolipin-3 (Homo sapiens) (UniProt Q8TDD5) (assay: TRPML3 channel agonist potency, late-stage follow-up, cell-based, fluorescence, dose response, round 3 (AID 602129)). Conditions: HEK293 TRPML3 cells, calcium fluorescence.
Chain of Mucolipin-3 (Homo sapiens) (Q8TDD5 whole entry, looked up): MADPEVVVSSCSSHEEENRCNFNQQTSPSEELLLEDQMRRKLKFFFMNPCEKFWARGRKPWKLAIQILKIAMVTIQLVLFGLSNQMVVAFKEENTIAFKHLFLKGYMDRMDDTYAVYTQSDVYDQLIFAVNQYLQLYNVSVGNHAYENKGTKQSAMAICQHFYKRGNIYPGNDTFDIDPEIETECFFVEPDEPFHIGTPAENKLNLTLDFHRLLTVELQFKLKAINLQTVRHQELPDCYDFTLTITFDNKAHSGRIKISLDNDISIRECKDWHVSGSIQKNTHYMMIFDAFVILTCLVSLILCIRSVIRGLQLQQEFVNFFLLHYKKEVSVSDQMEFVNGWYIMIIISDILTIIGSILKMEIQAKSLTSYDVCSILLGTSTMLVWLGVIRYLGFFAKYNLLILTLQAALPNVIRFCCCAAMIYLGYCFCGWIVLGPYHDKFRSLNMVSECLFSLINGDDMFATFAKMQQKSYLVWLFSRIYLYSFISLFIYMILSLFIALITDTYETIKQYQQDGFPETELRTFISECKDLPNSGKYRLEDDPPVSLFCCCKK
For `Cc1onc(-c2ccc(Cl)cc2)c1-c1ccn(S(=O)(=O)c2ccccc2C(F)(F)F)n1`, the EC50 was 3.58 µM.
For `Cc1onc(-c2ccc(Cl)cc2)c1-c1ccn(S(=O)(=O)c2cccc(Cl)c2)n1`, the EC50 was 1.95 µM.
In the case of `CCCCNS(=O)(=O)c1ccc(OCC)c2ccccc12`, the EC50 is reported as > 29.9 µM (inactive).
For `Cc1ccccc1S(=O)(=O)n1ccc(-c2c(-c3ccc(Cl)cc3)noc2C)n1`, the EC50 was 4.86 µM.
In the case of `Cc1onc(-c2ccc(Cl)cc2)c1-c1ccn(S(=O)(=O)c2cccc3cccnc23)n1`, the EC50 is reported as > 29.9 µM (inactive).
Compound `CCOc1ccc(S(=O)(=O)N2CCCCC2)c2ccccc12` has an EC50 of 3.46 µM.
`CCOc1ccc(S(=O)(=O)NCc2ccncc2)c2ccccc12` was tested, and the EC50 was > 29.9 µM (inactive).
With `COc1ccc(S(=O)(=O)n2ccc(-c3c(-c4ccc(Cl)cc4)noc3C)n2)cc1` the EC50 was 3.78 µM.
`COc1ccc(S(=O)(=O)N2CCCCCC2)c2ccccc12` gave an EC50 of 0.476 µM.
`Cc1onc(-c2ccc(Cl)cc2)c1-c1ccnn1S(=O)(=O)c1ccc(Cl)cc1` was tested, and the EC50 was > 29.9 µM (inactive).
With `COc1ccc(-c2noc(C)c2-c2ccn(S(=O)(=O)c3ccc(C)cc3)n2)cc1` the EC50 was 2.99 µM.
In the case of `CCOc1ccc(S(=O)(=O)NCc2ccc(OC)cc2)c2ccccc12`, the EC50 is reported as > 29.9 µM (inactive).
`CC(C)Oc1ccc(S(=O)(=O)N2CCCCCC2)c2ccccc12` was tested, and the EC50 was “inactive”.
For `Cc1onc(-c2ccc(Cl)cc2)c1-c1ccn(S(=O)(=O)c2ccccc2Cl)n1`, the EC50 was 1.53 µM.
`Cc1onc(-c2ccc(Cl)cc2)c1-c1ccn(S(=O)(=O)c2cccc(C(F)(F)F)c2)n1` showed an EC50 of 3.34 µM.
In the case of `Cc1onc(-c2ccc(Cl)cc2)c1-c1ccnn1S(=O)(=O)c1cccc(C(F)(F)F)c1`, the EC50 is reported as > 29.9 µM (inactive).
Work on `Cc1ccc(S(=O)(=O)n2ccc(-c3c(-c4ccc(F)cc4)noc3C)n2)cc1` yielded an EC50 of 0.68 µM.
For `CCOc1ccc(S(=O)(=O)N2CCSCC2)c2ccccc12`, the EC50 was > 29.9 µM (inactive).
For `CCOc1ccc(S(=O)(=O)N2CCCC2)c2ccccc12`, the EC50 was > 29.9 µM (inactive).
With `Cc1onc(-c2ccc(Cl)cc2)c1-c1ccn(S(=O)(=O)C(F)(F)F)n1` the EC50 was > 29.9 µM (inactive).
In the case of `Cc1onc(-c2ccccc2)c1-c1ccn(S(=O)(=O)c2ccc(Cl)cc2)n1`, the EC50 is reported as > 29.9 µM (inactive).
`CCOc1ccc(S(=O)(=O)N2CCN(C(=O)OC(C)(C)C)CC2)c2ccccc12` was tested, and the EC50 was > 29.9 µM (inactive).
Work on `Cc1ccc(S(=O)(=O)n2ccc(-c3c(-c4ccccc4)noc3C)n2)cc1` yielded an EC50 of 1.46 µM.
With `Cc1onc(-c2ccc(Cl)cc2)c1-c1ccn(S(=O)(=O)c2ccc(Cl)cc2)n1` the EC50 was “inactive”.
`Cc1onc(-c2ccc(Cl)cc2)c1-c1ccn(S(=O)(=O)c2ccccc2)n1` was tested, and the EC50 was 2.39 µM.
With `CCOc1ccc(S(=O)(=O)n2ccc(-c3c(-c4ccc(Cl)cc4)noc3C)n2)c2ccccc12` the EC50 was > 29.9 µM (inactive).
With `Cc1onc(-c2ccc(Cl)cc2)c1-c1ccn(S(=O)(=O)c2ccc(C(F)(F)F)cc2)n1` the EC50 was > 29.9 µM (inactive).
For `Cc1ccc(S(=O)(=O)n2nccc2-c2c(-c3ccccc3)noc2C)cc1`, the EC50 was > 29.9 µM (inactive).
For `Cc1onc(-c2ccccc2)c1-c1ccnn1S(=O)(=O)c1ccc(Cl)cc1`, the EC50 was > 29.9 µM (inactive).
With `Cc1onc(-c2ccc(Cl)cc2)c1-c1ccn(S(C)(=O)=O)n1` the EC50 was > 29.9 µM (inactive).
For `Cc1onc(-c2ccc(Cl)cc2)c1-c1ccn(S(=O)(=O)c2cccs2)n1`, the EC50 was > 29.9 µM (inactive).
In the case of `CCOc1ccc(S(=O)(=O)N2CCN(c3ccccc3Cl)CC2)c2ccccc12`, the EC50 is reported as > 29.9 µM (inactive).
For `CCOc1ccc(S(=O)(=O)N(CC)CC)c2ccccc12`, the EC50 was > 29.9 µM (inactive).
With `CCOc1ccc(S(=O)(=O)N2CCOCC2)c2ccccc12` the EC50 was > 29.9 µM (inactive).

From PubChem BioAssay AID602129 (The Scripps Research Institute Molecular Screening Center, 2011)
